From US20240287033A1, “DEGRADERS OF TISSUE TRANSGLUTAMINASE 2 (TG2)” (Northwestern University, priority 2023, published 2024)
Entries after “also recorded” stand apart in the source; their conditions may differ. Like-named read-outs stand apart in the source and are kept apart here. Each block holds one molecule with its values, some of them ahead of it.

What was measured:
SKOV3 cells [1] = test: Wound-healing (scratch) assay, SKOV3; type: cell-based
Protocol: (§1) For the scratch assay, confluent 6-well plates were scratched with a pipette tip, washed and treated with compounds or vehicle. The plate was photographed at set time points and the area of wound closure was quantified with ImageJ. Cell migration was assessed by using Transwell inserts (8 μm pore size, Merck-Millipore, Watford, UK). Briefly, 15,000 cells were seeded in the upper chambers of trans-wells in serum-free media containing compounds or control, while media containing 10% serum was added to the lower chamber. After 18 hours, cells invaded through the transwells were fixed with warm 4% PFA for 20 min at room temperature and stained with crystal violet for 3 min. The membranes were removed, mounted on cover slides and cells were counted using a microscope at 40× magnification.

TG2 [2] = target: T1, TG2 (Homo sapiens, UniProt P21980); test: Western blot analysis of TG2 degradation in OVCAR5 cells; type: cell-based
T1 construct: tested in multiple ovarian cancer cell lines that express TG2 for their ability to degrade the protein; endogenous in cells; host or cells: OVCAR5 and SKOV3 ovarian cancer cells
T1 sequence (P21980 1-687): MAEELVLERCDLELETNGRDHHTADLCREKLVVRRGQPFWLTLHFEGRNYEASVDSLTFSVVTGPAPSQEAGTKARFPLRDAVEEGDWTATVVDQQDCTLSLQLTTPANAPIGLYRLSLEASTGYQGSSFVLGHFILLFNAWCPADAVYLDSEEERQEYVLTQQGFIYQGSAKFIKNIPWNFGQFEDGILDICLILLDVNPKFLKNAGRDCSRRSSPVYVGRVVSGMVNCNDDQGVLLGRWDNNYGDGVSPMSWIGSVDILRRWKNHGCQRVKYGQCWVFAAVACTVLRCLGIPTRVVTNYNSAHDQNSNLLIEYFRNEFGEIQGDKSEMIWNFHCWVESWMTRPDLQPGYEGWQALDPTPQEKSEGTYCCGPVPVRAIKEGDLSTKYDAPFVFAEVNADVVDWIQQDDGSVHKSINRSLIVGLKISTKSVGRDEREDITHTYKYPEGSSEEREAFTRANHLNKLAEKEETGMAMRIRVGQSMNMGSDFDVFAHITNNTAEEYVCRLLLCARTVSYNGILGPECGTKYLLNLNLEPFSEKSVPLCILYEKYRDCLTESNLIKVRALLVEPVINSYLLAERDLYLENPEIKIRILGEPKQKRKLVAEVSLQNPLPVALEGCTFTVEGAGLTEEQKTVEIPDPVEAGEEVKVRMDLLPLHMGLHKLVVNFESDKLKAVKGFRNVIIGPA
Protocol: (§2) SKOV3 cells were purchased from ATCC. OVCAR5 cells were obtained from Dr. Marcus Peter at Northwestern University. Cells were maintained at 37° C. in an environment of 5% CO2 and 100% humidity. The media used for culturing the cell lines are included in Table 1. Cells lines used in all experiments were at low-passages and were confirmed to be pathogen and mycoplasma-free by Charles River Animal Diagnostic Services. Cell lines were authenticated by IDEXX BioAnalytics with short tandem repeat (STR) profiling. MG132 was obtained from SelleckChem. Anti-TG2 antibody (cat #: MAB3839-I-100UG) was purchased from Millipore Sigma, GAPDH antibody (cat #: H86504M) was purchased from Meridian Bioscience.
(§3) Briefly, SKOV3 and OVCAR5 cells were seeded on 6 cm dishes and treated with different concentrations of compounds at different time points. Proteins were extracted using RIPA buffer and quantified using the Bradford assay. After gel electrophoresis and transfer, PDVF membranes were blocked with TBS-Tween 5% BSA for one hour and incubated with primary antibodies 20 (1:1000 dilution, overnight at 4° C.). After incubation with the secondary antibody (anti rabbit/mouse-horseradish peroxidase 1:1000 dilution) for 1 h at room temperature, signal was developed using SuperSignal West Pico PLUS Chemiluminescent Substrate (Thermo Fisher Scientific cat #: 34580) and captured with an ImageQuant LAS 4000 machine. To detect additional proteins, membranes were treated with Restore Western Blot Stripping Buffer (Thermo Fisher Scientific cat #: 21059), blocked, and then incubated with primary antibody.

OVCAR5 cells [3] = test: Cell viability assay (CCK-8), OVCAR5; type: cell-based; details: 0.1-30 μM, 5 days
Protocol: (§4) The numbers of viable cells were quantified by using the CCK-8 assay (ApexBio) following the manufacturer's directions. Absorbance was measured by a spectrophotometer at 495 nm and used estimate the viability of the cells.

TG2 [4] = target: T1, TG2; test: Western blot analysis of TG2 degradation in SKOV3 cells; type: cell-based
Protocol: as §2, §3

full-length TG2 [5] = target: T2, full-length TG2 (Homo sapiens, UniProt P21980); test: Isothermal titration calorimetry (ITC) binding to TG2; details: for Kd: titration into TG2 at 30° C., PBS with 1% DMSO, read-out: equilibrium dissociation constant KD (ITC)
T2 sequence (P21980 1-687): T1 sequence (P21980 1-687)
Protocol: Sample Preparation. Protein dilutions in PBS with 1% DMSO were prepared from stock solutions of […] in PBS. The protein dilutions were initially equilibrated on ice for 5 min, then for 20 min at 30° C. The solutions were filtered using a […] Millipore centrifugal device just prior to insertion in the ITC cell. The solubility of the protein solutions was confirmed independently by DLS (data not shown), and the concentration of each solution (after filtration) was measured with a NanoDrop 2000 Instrument.
All compound dilutions were made in PBS, and the final DMSO concentration in each solution was carefully adjusted to 1%.
ITC Experiments. All ITC experiments were performed on an Affinity Low Volume instrument (Waters/TA Instruments) equipped with a fixed 198 μL gold cell. In each experiment, 320 μL of protein solution was loaded into the ITC cell, and 200 μL of the corresponding compound was in the syringe. The data were acquired using ITCRun data acquisition software. The incremental ITC experiments consisted of multiple 2 μL injections at 50-350-second intervals with a stirring speed of 100 revolutions per minute (rpm). The Auto Equilibrate function allowed for the equilibration of the baseline to a peak-to-peak standard deviation of less than 12 nW. For each compound, separate control experiments were performed to evaluate the heat of dilution. The control experiments were set with identical parameters but performed with reaction buffer instead of protein in the ITC cell and consisted of fewer (6-10) injections.
Data Analysis. ITC data were analyzed with Nano Analyze Software (Waters/TA Instruments) using the “independent sites” model after correction for heats of dilution.

OVCAR5 cells [6] = test: Wound-healing (scratch) assay, OVCAR5; type: cell-based
Protocol: as §1

Solubility observations = type: physicochemical
OVCAR5 cells [7] = test: Solid phase adhesion assay on fibronectin, OVCAR5; type: cell-based
Protocol: (§5) Briefly, wells were coated with 10 μg/ml fibronectin diluted in PBS for one hour. 30,000 cells pretreated with compounds for 6 hours were seeded and allowed to attach for 30 minutes. After washing with PBS to remove unattached cells, cells adhering to coated wells were quantified by using the CCK-8 assay (ApexBio), following the manufacturer's protocol. Relative absorbance measured at 496 nm was used to estimate the relative number of the cell attached to fibronectin coated wells.

OVCAR5 cells [8] = test: Transwell migration assay, OVCAR5; type: cell-based
Protocol: as §1

SKOV3 cells [9] = test: Solid phase adhesion assay on fibronectin, SKOV3; type: cell-based
Protocol: as §5

SKOV3 cells [10] = test: Cell viability assay (CCK-8), SKOV3; type: cell-based; details: 0.1-30 μM, 5 days
Protocol: as §4

SKOV3 cells [11] = test: Transwell migration assay, SKOV3; type: cell-based
Protocol: as §1

full-length TG2 [12] = target: T2, full-length TG2; details: literature value (ref. 41); read-out: KD of MT4 to TG2, previously reported result; cited from earlier work
[13] = 10 μM compound 6 hrs, 10 μM VHL ligand
[14] = dosed every 6-8 hours over 24 hours, 1 or 10 μM

- TG2 degradation with VHL ligand as competitive inhibitor (TG2 [2]; [13]): prevented degradation of TG2
- TG2 levels after longer treatment (western blot) (TG2 [2]; 24 hours, single dosing): did not induce reduction in TG2 levels
- TG2 levels after longer treatment (western blot) (TG2 [4]; 24 hours, single dosing): did not induce reduction in TG2 levels
- time of maximal TG2 degradation (TG2 [4]; higher concentrations (10 and 30 μM)): 6 h
- decrease in affinity relative to the parental compound MT4 (full-length TG2 [5]; ITC KD ratio versus MT4): > 12.8 fold
- Kd (full-length TG2 [5]): > 100 µM
- solubility (in words) (Solubility observations): poorer solubility than compound 11
SMILES: Cc1cc(N(C)CCOCCC(=O)N[C@H](C(=O)N2C[C@H](O)C[C@H]2C(=O)NCc2ccc(-c3scnc3C)cc2)C(C)(C)C)nc(Nc2ccc(NC(=O)Cc3ccccc3)cc2)n1 [Compound 7, (2S,4R)-1-((S)-3,3-dimethyl-2-(3-(2-(methyl(6-methyl-2-((4-(2-phenylacetamido)phenyl)amino)pyrimidin-4-yl)amino)ethoxy)propanamido)butanoyl)-4-hydroxy-N-(4-(4-methylthiazol-5-yl)benzyl)pyrrolidine-2-carboxamide]
- cell migration, wound-healing assay (SKOV3 cells [1]): similarly inhibited the migration
- TG2 degradation (western blot) (TG2 [2]; 6 hours, 0.1-10 μM): significantly reduced the level of TG2; also recorded: Degradation of TG2 was observed
- TG2 levels at 24 hours after repeated dosing (TG2 [2]; [14]): persistent and dose-dependent decreased TG2 levels
- cell death / viability (OVCAR5 cells [3]): No significant cell death; also recorded: no cell death was observed
- TG2 degradation with VHL ligand as competitive inhibitor (TG2 [4]; [13]): prevented degradation of TG2; also recorded: but not when combined with VHL ligand
- TG2 degradation (western blot) (TG2 [4]; 6 hours, up to 10 μM): significantly reduced the level of TG2; also recorded: Degradation of TG2 was observed
- TG2 levels at 24 hours after repeated dosing (TG2 [4]; [14]): persistent and dose-dependent decreased TG2 levels
- cell migration, wound-healing assay (OVCAR5 cells [6]): potently inhibited the migration
- adhesion of cells to fibronectin (OVCAR5 cells [7]): significantly reduced the adhesion
- cell migration, transwell migration assay (OVCAR5 cells [8]): potently inhibited the migration
- adhesion of cells to fibronectin (SKOV3 cells [9]): significantly reduced the adhesion
- cell death / viability (SKOV3 cells [10]): No significant cell death; also recorded: no cell death was observed
- cell migration, transwell migration assay (SKOV3 cells [11]): similarly inhibited the migration

- Kd (full-length TG2 [5]): 7.8 µM
SMILES: Cc1cc(N(C)C)nc(Nc2ccc(NC(=O)Cc3ccccc3)cc2)n1 [MT4, reference compound]
- solubility (in words) (Solubility observations): lower solubility than the PROTAC compounds
- Kd (full-length TG2 [12]): 5.1 µM
